Tests used:
Assay type in all cases: functional
Pseudomonas aeruginosa [1] = experiment: Potentiation of aztreonam-induced antibacterial activity against carbapenem-resistant Pseudomonas aeruginosa 88949 clinical isolate assessed as fold reduction in aztreonam MIC at 8 uM in presence of beta-lactamase inhibitor, avi-bactam
Pseudomonas aeruginosa [2] = experiment: Potentiation of aztreonam-induced antibacterial activity against carbapenem-resistant Pseudomonas aeruginosa 108590 clinical isolate assessed as fold reduction in aztreonam MIC at 8 uM in presence of beta-lactamase inhibitor, avi-bactam
Pseudomonas aeruginosa [3] = experiment: Potentiation of imipenem-induced antibacterial activity against carbapenem-resistant Pseudomonas aeruginosa 109084 clinical isolate assessed as imipenem MIC at 8 uM by checkerboard assay (reference value: 16 ug/ml)
Pseudomonas aeruginosa [4] = experiment: Potentiation of imipenem-induced antibacterial activity against carbapenem-resistant Pseudomonas aeruginosa 100036 clinical isolate assessed as imipenem MIC at 8 uM by checkerboard assay (reference value: 8 ug/ml)
Pseudomonas aeruginosa [5] = experiment: Potentiation of imipenem-induced antibacterial activity against carbapenem-resistant Pseudomonas aeruginosa 260-97103 clinical isolate assessed as imipenem MIC at 8 uM by checkerboard assay (reference value: 16 ug/ml)
Pseudomonas aeruginosa [6] = experiment: Potentiation of ceftazidime-induced antibacterial activity against carbapenem-resistant Pseudomonas aeruginosa 264-104354 clinical isolate assessed as ceftazidime MIC at 8 uM by checkerboard assay (reference value: 128 ug/ml)
Pseudomonas aeruginosa [7] = experiment: Potentiation of aztreonam-induced antibacterial activity against carbapenem-resistant Pseudomonas aeruginosa 264-104354 clinical isolate assessed as aztreonam MIC at 8 uM by checkerboard assay (reference value: 32 ug/ml)
Pseudomonas aeruginosa [8] = experiment: Antibacterial activity against Pseudomonas aeruginosa PAO750 harboring mexAB-oprM/mexCD-oprJ/mexEF-oprN/mexJK/mexXY/opmH efflux deficient mutant
Pseudomonas aeruginosa [9] = experiment: Antibacterial activity against Pseudomonas aeruginosa PAO200 harboring mexAB-oprM efflux deficient mutant
Pseudomonas aeruginosa [10] = experiment: Potentiation of imipenem-induced antibacterial activity against wild type Pseudomonas aeruginosa PAO1 assessed as fold reduction in imipenem MIC at 8 uM

Structure (SMILES) | fold change (FC) (Pseudomonas aeruginosa [1]) | fold change (FC) (Pseudomonas aeruginosa [2]) | MIC (Pseudomonas aeruginosa [3]) [µg/mL] | MIC (Pseudomonas aeruginosa [4]) [µg/mL] | MIC (Pseudomonas aeruginosa [5]) [µg/mL] | MIC (Pseudomonas aeruginosa [6]) [µg/mL] | MIC (Pseudomonas aeruginosa [7]) [µg/mL] | MIC (Pseudomonas aeruginosa [8]) [µg/mL] | MIC (Pseudomonas aeruginosa [9]) [µg/mL] | fold change (FC) (Pseudomonas aeruginosa [10])
NC[C@H]1O[C@H](O[C@H]2[C@H](OCCCCc3cn(CCCCO[C@@H]4[C@@H](O[C@H]5O[C@H](CO)[C@@H](O)[C@H](N)[C@H]5O)[C@H](N)C[C@H](N)[C@H]4O[C@H]4O[C@H](CN)[C@@H](O)C[C@H]4N)nn3)[C@@H](O[C@H]3O[C@H](CO)[C@@H](O)[C@H](N)[C@H]3O)[C@H](N)C[C@@H]2N)[C@H](N)C[C@@H]1O.O=C(O)C(F)(F)F.O=C(O)C(F)(F)F.O=C(O)C(F)(F)F.O=C(O)C(F)(F)F.O=C(O)C(F)(F)F.O=C(O)C(F)(F)F.O=C(O)C(F)(F)F.O=C(O)C(F)(F)F.O=C(O)C(F)(F)F.O=C(O)C(F)(F)F | 16 | 16 | 8 | 4 | 16 | 32 | 8 | > 128 | > 128 | 2
Cl.Cl.Cl.Cl.Cl.NC[C@H]1O[C@H](O[C@H]2[C@H](OCCCCCCCCCCCCN3CCN(c4cc5c(cc4F)c(=O)c(C(=O)O)cn5C4CC4)CC3)[C@@H](O)[C@H](N)C[C@@H]2N)[C@H](N)C[C@@H]1O | 16 | 16 | 8 | 4 | 2 | 64 | 16 | 2 | 4 | 2
N=C(N)NC[C@H]1O[C@H](O[C@H]2[C@H](OCCCCCCCCCCCCN3CCN(c4cc5c(cc4F)c(=O)c(C(=O)O)cn5C4CC4)CC3)[C@@H](O[C@H]3O[C@H](CO)[C@@H](O)[C@H](NC(=N)N)[C@H]3O)[C@H](NC(=N)N)C[C@@H]2NC(=N)N)[C@H](NC(=N)N)C[C@@H]1O.O=C(O)C(F)(F)F.O=C(O)C(F)(F)F.O=C(O)C(F)(F)F.O=C(O)C(F)(F)F.O=C(O)C(F)(F)F.O=C(O)C(F)(F)F | 16 | 16 | 16 | 4 | 8 | 128 | 32 | 16 | 16 | 2
